Measurements reported in patent US8835466B2, “Synthesis and uses of pyroglutamic acid derivatives” (Prodimed, S.A., priority 2006, dated 2014).
Values joined by “and” are separate entries in the source; they are usually repeats but may differ in a detail not shown here. Identical values can stand only once. Like-named read-outs stand apart in the source and are kept apart here.

What was measured:
[1] = test system: CT26.wt (colon carcinoma); test: Effect of isomer 4 (9d) on tumour growth, CT26.wt (Example 10); assay type: in vivo; conditions: CT26.wt (high dose colon carcinoma); Balbc/cByl mice; 250 ng/mice i.p. days 6, 7 and 14
Protocol: (§1) The following assays were made in order to check the effect of isomer 4 (9d) on different tumours following methods and materials analogous to those used in examples 8 and 9, In all cases sterile physiologic saline (Grifols, Barcelona, Spain) was used as placebo. Isomer 4 (9d) was tested at the dose levels indicated in Table 13 on days 6, 7 and 14 after tumour inoculation. In all cases the vehicle was physiologic saline and the treatments were given by intraperitoneal route. The volume inoculated was 0.2 mL/animal.

[2] = test system: CT26.CL25 (colon carcinoma); test: Effect of isomer 4 (9d) on tumour growth, CT26.CL25 (Example 10); assay type: in vivo; conditions: CT26.CL25 (Low dose colon carcinoma); Balbc/cByl mice; 250 ng/mice i.p. days 6, 7 and 14
Protocol: as §1

Mm5MT (Breast tumour) = test: Effect of isomer 4 (9d) on tumour growth, Mm5MT (Example 10); assay type: in vivo; conditions: C3H/HeN mice, 250 ng/mice i.p. days 6, 7 and 14
Protocol: as §1

KLN 205 (lung carcinoma) = test: Effect of isomer 4 (9d) on tumour growth, KLN 205 (Example 10); assay type: in vivo; conditions: KLN 205 (high dose lung carcinoma); DBA/2NCrI mice; 260 ng/mice i.p. days 6, 7 and 14
Protocol: as §1

ASB XIV (lung carcinoma) = test: Effect of isomer 4 (9d) on tumour growth, ASB XIV (Example 10); assay type: in vivo; conditions: Balb/cAnNCrI mice, 260 ng/mice i.p. days 6, 7 and 14
Protocol: as §1

Lewis (lung carcinoma) = test: Effect of isomer 4 (9d) on tumour growth, Lewis (Example 10); assay type: in vivo; conditions: Lewis (low dose lung carcinoma); C57BL/6NCrI mice; 260 ng/mice i.p. days 6, 7 and 14
Protocol: as §1

P-815 (Mastocytoma) = test: Effect of isomer 4 (9d) on tumour growth, P-815 (Example 10); assay type: in vivo; conditions: DBA/2NCrI mice, 250 ng/mice i.p. days 6, 7 and 14
Protocol: as §1

healthy mice = assay type: in vivo; conditions: for WEIGHT LOSS: weight, MEAN / WEIGHT LOSS: weight, MEDIAN: n 5
Protocol: This assay was made in order to perform a preliminary study to address the toxic effect of Isomer 4 (9d) used at a high dose on healthy mice. Its eventual toxicity will be compared with placebo.
Isomer 4 (9d) at 0.7 mg/mL in sterile physiological saline.
The vehicle in which Isomer 4 was diluted was sterile physiological saline for injection (Grifols, Barcelona, Spain) and sterile distilled water for injection (Grifols, Barcelona, Spain)
The treatments were given i.p. or s.c.
Every mouse was observed daily during 10 days.
Three measures were performed:
3. Weight. This was measured and expressed in grammes.
4. Lethality. This was expressed as percentage of survival.
5. Toxicity. This was checked on alive mice for the following parameters and score criteria:
A case-control study was performed with treated and control mice in order to determine whether differences between Isomer 4 and administration of placebo were present. The U-test of Mann Withney was chosen for being one of the better known non-parametrical tests, anyway, results for this test are equivalent both to those of Wilcoxon's sum of ranges and Kruskal-Wallis two-groups test.

[3] = test system: CD11b and Ly6G positive leukocyte populations; test: Phenotype leukocyte analysis by flow cytometry (CD11b, Ly6G) in peripheral blood (Example 16); assay type: in vivo, Balb/c mice
Protocol: This Example was carried out with the aim at assessing eventual differences in the leukocyte population percentage among the treated mice by flow cytometry. The counts were carried out by using a flow cytometer after labelling membrane proteins (CD11B and Ly6G) with specific antibodies to said proteins. CD11B (also known as Mac-1) marker is expressed in monocyte populations whereas Ly6G (also known as GR-1) is expressed in granulocyte populations. Both markers (CD11b and Ly6G) are expressed in neutrophile populations.
Isomer 4 (compound 9d) at 65 μg/mL in sterile physiological saline.
Equipment Laminar flood hood, Flow cytometer, Adjustable pipettes, Sterile syringes, Sterile needles, EDTA stelile tubes, Plastic tubes. Reagents • Anaesthetic solution • Sterile PBS (Sigma, St. Louis, Mo., USA) • Physiological saline (Grifols, Barcelona, Spain) • Rat anti-mouse CD11b-PE (Beckman Coulter, Fullerton, Calif., USA) • Rat anti-mouse Ly6G-FITC (Beckman Coulter, Fullerton, Calif., USA) • Optylise C (Beckman Coulter, Fullerton, Calif., USA) Dose, Vehicle, Route and Volume Administration Dose Isomer 4 (compound 9d) was tested at the dose levels of 250 ng administered on days 0, and 7. Vehicle The vehicle in which Isomer 4 was diluted is physiological saline. Administration Route and Volume
The treatments were given by intraperitoneal route. The volume inoculated was 200 μl/animal.
Balb/c mice were distributed into 2 experimental groups:
Three days after the last dose of the treatment, murine blood was isolated. It was obtained directly from intracardiac punction. Previously, mice were anesthetized intramuscularly.
Blood was mixed with the monoclonal antibodies described above.
After 20 minutes of incubation, Optylise C solution was added into the samples to lise erythrocytes population.
Finally, samples were diluted ½ with 1× sterile PBS and checked by flow cytometry.
Percentages of each population analyzed were expressed as single values and as the mean±SD from each experimental group.

[4] = Group A1, 1.25 mg i.p., C57BL/6NCrI, day 0 after the beginning of the treatment
[5] = Group A1, 1.25 mg i.p., C57BL/6NCrI, day 1 after the beginning of the treatment
[6] = Group A1, 1.25 mg i.p., C57BL/6NCrI, day 2 after the beginning of the treatment
[7] = Group A1, 1.25 mg i.p., C57BL/6NCrI, day 3 after the beginning of the treatment
[8] = Group A1, 1.25 mg i.p., C57BL/6NCrI, day 4 after the beginning of the treatment
[9] = Group A1, 1.25 mg i.p., C57BL/6NCrI, day 5 after the beginning of the treatment
[10] = Group A1, 1.25 mg i.p., C57BL/6NCrI, day 6 after the beginning of the treatment
[11] = Group A1, 1.25 mg i.p., C57BL/6NCrI, day 7 after the beginning of the treatment
[12] = Group A1, 1.25 mg i.p., C57BL/6NCrI, day 8 after the beginning of the treatment
[13] = Group A1, 1.25 mg i.p., C57BL/6NCrI, day 9 after the beginning of the treatment
[14] = Group A1, 1.25 mg i.p., C57BL/6NCrI, day 10 after the beginning of the treatment
[15] = Balb/C mice, two doses (once per week) 250 ng i.p., flow cytometry three days after the last dose
[16] = group mean, n = 4, 250 ng i.p. on days 0 and 7, blood three days after the last dose
[17] = individual mice, 250 ng i.p. on days 0 and 7, blood three days after the last dose, listed as 9d

SMILES: Br.N[C@]1(C[n+]2ccccc2)C[C@H](C(=O)O)NC1=O.[Br-] (single isomer, unassigned; isomer 4) [isomer 4, 3S,5R-1-(3-Amino-5-carboxy-2-oxopyrrolidin-3-ylmethyl)pyridinium bromide hidrobromide]
- Tumour growth inhibition? [1]: YES
- Tumour growth inhibition? [2]: YES
- Tumour growth inhibition? (Mm5MT (Breast tumour)): YES
- Tumour growth inhibition? (KLN 205 (lung carcinoma)): YES
- Tumour growth inhibition? (ASB XIV (lung carcinoma); ASB XIV (high dose lung carcinoma)): YES
- Tumour growth inhibition? (ASB XIV (lung carcinoma); ASB XIV (low dose lung carcinoma)): YES
- Tumour growth inhibition? (Lewis (lung carcinoma)): YES
- Tumour growth inhibition? (P-815 (Mastocytoma)): YES
- Differences on weight between groups (Isomer 4 vs placebo), p (Mann-Whitney U test) (healthy mice; C57BL/6 mice, every day scored over 10 days): > 0.05
- WEIGHT LOSS: weight of each mouse (healthy mice; Group A1, 1.25 mg i.p., C57BL/6NCrI, individual animals 1-5, day 8 after the beginning of the treatment): 26 g (3×) and 20 g and 28 g
- WEIGHT LOSS: weight, MEAN (healthy mice; [4]): 26.4 g
- WEIGHT LOSS: weight, MEDIAN (healthy mice; [4]): 27 g
- WEIGHT LOSS: weight, MEAN (healthy mice; [5]): 25.4 g
- WEIGHT LOSS: weight, MEDIAN (healthy mice; [5]): 26 g
- WEIGHT LOSS: weight, MEAN (healthy mice; [6]): 25.4 g
- WEIGHT LOSS: weight, MEDIAN (healthy mice; [6]): 26 g
- WEIGHT LOSS: weight, MEAN (healthy mice; [7]): 26 g
- WEIGHT LOSS: weight, MEDIAN (healthy mice; [7]): 26 g
- WEIGHT LOSS: weight, MEAN (healthy mice; [8]): 25.8 g
- WEIGHT LOSS: weight, MEDIAN (healthy mice; [8]): 26 g
- WEIGHT LOSS: weight, MEAN (healthy mice; [9]): 24.8 g
- WEIGHT LOSS: weight, MEDIAN (healthy mice; [9]): 26 g
- WEIGHT LOSS: weight, MEAN (healthy mice; [10]): 25 g
- WEIGHT LOSS: weight, MEDIAN (healthy mice; [10]): 26 g
- WEIGHT LOSS: weight, MEAN (healthy mice; [11]): 25 g
- WEIGHT LOSS: weight, MEDIAN (healthy mice; [11]): 26 g
- WEIGHT LOSS: weight, MEAN (healthy mice; [12]): 25.2 g
- WEIGHT LOSS: weight, MEDIAN (healthy mice; [12]): 26 g
- WEIGHT LOSS: weight, MEAN (healthy mice; [13]): 25 g
- WEIGHT LOSS: weight, MEDIAN (healthy mice; [13]): 26 g
- WEIGHT LOSS: weight, MEAN (healthy mice; [14]): 24.8 g
- WEIGHT LOSS: weight, MEDIAN (healthy mice; [14]): 26 g
- Deaths or toxicity (systemic), in words (healthy mice; Group A1, dose exceeded 50,000-fold the total amount of the therapeutic dose): No deaths or toxicity were observed
- Local toxicity, in words (healthy mice; Group C1, dose exceeded 500-fold the normal concentration of the therapeutic dose): Local toxicity was neither observed
- Tolerance by mice, in words (healthy mice; doses that greatly exceed its therapeutic range): well tolerated
- CD11b positive cells in peripheral blood compared with control mice [3, 15]: increment
- CD11b+Ly6G positive cells in peripheral blood compared with control mice [3, 15]: increment
- Ly6G positive cells in peripheral blood compared with control mice [3, 15]: increment
- CD11b+ cells, PBL (Peripheral Blood), flow cytometry, Media [3, 16]: 36.95%
- CD11b+Ly6G+ cells, PBL (Peripheral Blood), flow cytometry, Media [3, 16]: 31.05%
- Ly6G+ cells, PBL (Peripheral Blood), flow cytometry, Media [3, 16]: 34.775%
- CD11b+ cells, PBL (Peripheral Blood), flow cytometry [3, 17]: 35.5% and 44% and 35.4% and 32.9%
- CD11b+Ly6G+ cells, PBL (Peripheral Blood), flow cytometry [3, 17]: 29.7% and 32.3% and 28.5% and 33.7%
- Ly6G+ cells, PBL (Peripheral Blood), flow cytometry [3, 17]: 27% and 37.6% and 33.3% and 41.2%
